The record followed here is publication PMC11289882, “Site-directed allostery perturbation to probe the negative regulation of hypoxia inducible factor-1α” (RSC Chemical Biology, 2024).

Like-named read-outs stand apart in the source and are kept apart here. Non-standard residues stand in square brackets, D forms with d. Residues, ends and D or L forms follow the SMILES beside them. β3hE = N[C@@H](CCC(=O)O)CC(=O)O; β3hQ = NC(=O)CC[C@H](N)CC(=O)O; β3hD = NC(CC(=O)O)CC(=O)O; β3hS = N[C@@H](CO)CC(=O)O

The target of assay [1] is T1, p300_330–420 (TAZ1 domain) (Homo sapiens, UniProt Q09472).
T1 construct: from residues 330-420 (used for FA and ITC experiments); GST (N, cleaved yes); made in house; host or cells: E. coli BL21 pLysS (pGEX-4T-1)
As to the kind of experiment: ITC direct titration to p300. The settings on record: 35 °C. Format: binding.

A further assay addresses T2, p300–Flu-HIF-1α (Homo sapiens, UniProt Q09472).
T2 construct: from residues 330-420 (used for FA and ITC experiments); GST (N, cleaved yes); made in house; host or cells: p300: E. coli BL21 pLysS (pGEX-4T-1); tracer peptide: solid-phase synthesis
As to the kind of experiment: Fluorescence anisotropy competition against p300–Flu-HIF-1α. Format: binding.

Where [2] appears, read: 5 µM p300_330–420 in cell, 60 µM ligand in syringe, 40 mM Na-phosphate pH 7.5, 100 mM NaCl, 1 mM DTT, global fit with ternary intermediate model, 68% confidence intervals in brackets, read-out: Direct binding to p300, K d.
Setting [3] is: 50 nM p300_330–420, 25 nM Flu-HIF-1α786–826 tracer, 40 mM Na-phosphate, 100 mM NaCl, 1 mM DTT, 0.01% Triton-X, pH 7.4, 10 min at 35 °C, fixed KD = 64 nM for tracer, three repeats, read-out: Kd,app FA competition against p300–Flu-HIF-1α.

T2 sequence (Q09472 330-420): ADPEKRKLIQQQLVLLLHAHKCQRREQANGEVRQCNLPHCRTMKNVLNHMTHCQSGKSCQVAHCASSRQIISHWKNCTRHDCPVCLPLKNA
T1 sequence (Q09472 330-420): as above

As for `CC[C@H](C)[C@H](NC(C)=O)C(=O)N[C@@H](CC(=O)O)C(=O)N[C@H](C(=O)N[C@@H](CC(=O)O)C(=O)N[C@@H](Cc1ccccc1)C(=O)N[C@H](C(=O)N[C@@H](CC(=O)O)C(=O)N[C@@H](CCC(=O)O)C(=O)N[C@@H](CCC(=O)O)C(=O)N[C@H](C(=O)N[C@@H](CC(C)C)C(=O)N[C@@H](CCSC)C(=O)N[C@@H](CO)C(=O)N[C@@H](CC(C)C)C(=O)N[C@H](C(=O)N[C@H](C(=O)N[C@@H](CCC(=O)O)C(=O)N[C@@H](CCSC)C(=O)NCC(=O)N[C@@H](CC(C)C)C(=O)N[C@@H](CC(=O)O)CC(=O)N[C@@H](CCCNC(=N)N)C(=O)N[C@H](C(=O)N[C@@H](CCCCN)C(=O)N[C@@H](CCC(=O)O)CC(=O)N[C@@H](CC(C)C)C(=O)N1CCC[C@H]1C(=O)N[C@@H](CCC(=O)O)CC(=O)N[C@@H](CC(C)C)C(=O)N[C@@H](Cc1c[nH]c2ccccc12)C(=O)N[C@@H](CC(C)C)C(=O)NCC(=O)N[C@@H](CCC(N)=O)C(=O)N[C@@H](CC(N)=O)C(=O)N[C@@H](CCC(=O)O)C(=O)N[C@@H](Cc1ccccc1)C(=O)N[C@@H](CC(=O)O)C(=O)N[C@@H](Cc1ccccc1)C(=O)N[C@@H](CCSC)C(N)=O)[C@@H](C)CC)[C@@H](C)CC)C(C)C)C(C)C)[C@@H](C)CC)[C@@H](C)O` [3a] (Ac-IDTDFIDEEVLMSLVIEMGL[β3hD]RIK[β3hE]LP[β3hE]LWLGQNEFDFM-NH2), the values for the Kd (in assay [1] (setting [2]); at p300–Flu-HIF-1α (setting [3])) were 675 nM and greater than 600 nM, respectively.

For the compound `CC[C@H](C)[C@H](NC(C)=O)C(=O)N[C@@H](CC(=O)O)C(=O)N[C@H](C(=O)N[C@@H](CC(=O)O)C(=O)N[C@@H](Cc1ccccc1)C(=O)N[C@H](C(=O)N[C@@H](CC(=O)O)C(=O)N[C@@H](CCC(=O)O)C(=O)N[C@@H](CCC(=O)O)C(=O)N[C@H](C(=O)N[C@@H](CC(C)C)C(=O)N[C@@H](CCSC)C(=O)N[C@@H](CO)C(=O)N[C@@H](CC(C)C)C(=O)N[C@H](C(=O)N[C@H](C(=O)N[C@@H](CCC(=O)O)C(=O)N[C@@H](CCSC)C(=O)NCC(=O)N[C@@H](CC(C)C)C(=O)N[C@@H](CC(=O)O)C(=O)N[C@@H](CCCNC(=N)N)C(=O)N[C@H](C(=O)N[C@@H](CCCCN)C(=O)N[C@@H](CCC(=O)O)C(=O)N[C@@H](CC(C)C)C(=O)N1CCC[C@H]1C(=O)N[C@@H](CCC(=O)O)C(=O)N[C@@H](CC(C)C)C(=O)N[C@@H](Cc1c[nH]c2ccccc12)C(=O)N[C@@H](CC(C)C)C(=O)NCC(=O)N[C@@H](CCC(N)=O)CC(=O)N[C@@H](CC(N)=O)C(=O)N[C@@H](CCC(=O)O)CC(=O)N[C@@H](Cc1ccccc1)C(=O)N[C@@H](CC(=O)O)CC(=O)N[C@@H](Cc1ccccc1)C(=O)N[C@@H](CCSC)C(N)=O)[C@@H](C)CC)[C@@H](C)CC)C(C)C)C(C)C)[C@@H](C)CC)[C@@H](C)O` [compound 4] (Ac-IDTDFIDEEVLMSLVIEMGLDRIKELPELWLG[β3hQ]N[β3hE]F[β3hD]FM-NH2), the Kd in assay [1] (setting [2]) came to 17 nM; on p300–Flu-HIF-1α (setting [3]), 1.7 ± 0.7 nM.

With `CC[C@H](C)[C@H](NC(C)=O)C(=O)N[C@@H](CC(=O)O)C(=O)N[C@H](C(=O)N[C@@H](CC(=O)O)C(=O)N[C@@H](Cc1ccccc1)C(=O)N[C@H](C(=O)N[C@@H](CC(=O)O)C(=O)N[C@@H](CCC(=O)O)C(=O)N[C@@H](CCC(=O)O)CC(=O)N[C@H](C(=O)N[C@@H](CC(C)C)C(=O)N[C@@H](CCSC)C(=O)N[C@@H](CO)CC(=O)N[C@@H](CC(C)C)C(=O)N[C@H](C(=O)N[C@H](C(=O)N[C@@H](CCC(=O)O)CC(=O)N[C@@H](CCSC)C(=O)NCC(=O)N[C@@H](CC(C)C)C(=O)N[C@@H](CC(=O)O)C(=O)N[C@@H](CCCNC(=N)N)C(=O)N[C@H](C(=O)N[C@@H](CCCCN)C(=O)N[C@@H](CCC(=O)O)C(=O)N[C@@H](CC(C)C)C(=O)N1CCC[C@H]1C(=O)N[C@@H](CCC(=O)O)C(=O)N[C@@H](CC(C)C)C(=O)N[C@@H](Cc1c[nH]c2ccccc12)C(=O)N[C@@H](CC(C)C)C(=O)NCC(=O)N[C@@H](CCC(N)=O)C(=O)N[C@@H](CC(N)=O)C(=O)N[C@@H](CCC(=O)O)C(=O)N[C@@H](Cc1ccccc1)C(=O)N[C@@H](CC(=O)O)C(=O)N[C@@H](Cc1ccccc1)C(=O)N[C@@H](CCSC)C(N)=O)[C@@H](C)CC)[C@@H](C)CC)C(C)C)C(C)C)[C@@H](C)CC)[C@@H](C)O` [compound 2] (Ac-IDTDFIDE[β3hE]VLM[β3hS]LVI[β3hE]MGLDRIKELPELWLGQNEFDFM-NH2), the Kd in assay [1] (setting [2]) turned out to be 16 nM; at p300–Flu-HIF-1α (setting [3]), 4.9 ± 0.8 nM.

Consider `CC[C@H](C)[C@H](NC(=O)[C@@H]1CCCN1C(=O)[C@H](C)NC(=O)[C@H](CC(N)=O)NC(=O)[C@@H](NC(=O)[C@H](CCC(=O)O)NC(=O)[C@H](CS)NC(=O)[C@H](CC(=O)O)NC(=O)[C@H](Cc1ccc(O)cc1)NC(=O)[C@H](CO)NC(=O)[C@@H](NC(=O)[C@H](CC(C)C)NC(=O)[C@H](CCC(N)=O)NC(=O)[C@@H]1CCCN1C(=O)[C@H](CC(C)C)NC(=O)CNC(=O)[C@H](CO)NC(=O)[C@H](CCC(=O)O)NC(=O)[C@H](CC(=O)O)NC(=O)[C@H](CCSC)NC(=O)[C@H](CO)NC(=O)[C@H](CCC(N)=O)NC(=O)CNC(=O)[C@H](CC(C)C)NC(=O)[C@H](CC(C)C)NC(=O)[C@H](CCCNC(=N)N)NC(=O)[C@H](CS)NC(=O)[C@H](C)NC(=O)[C@H](CC(C)C)NC(=O)[C@H](CC(=O)O)NC(=O)[C@H](CO)NC(C)=O)[C@@H](C)O)C(C)C)C(=O)N[C@@H](CCC(N)=O)C(=O)NCC(=O)N[C@@H](CO)C(=O)N[C@@H](CCCNC(=N)N)C(=O)N[C@@H](CC(N)=O)C(=O)N[C@@H](CC(C)C)C(=O)N[C@@H](CC(C)C)C(=O)N[C@@H](CCC(N)=O)C(=O)NCC(=O)N[C@@H](CCC(=O)O)C(=O)N[C@@H](CCC(=O)O)C(=O)N[C@@H](CC(C)C)C(=O)N[C@@H](CC(C)C)C(=O)N[C@@H](CCCNC(=N)N)C(=O)N[C@@H](C)C(=O)N[C@@H](CC(C)C)C(=O)N[C@@H](CC(=O)O)C(=O)N[C@@H](CCC(N)=O)C(=O)N[C@H](C(=O)N[C@@H](CC(N)=O)C(N)=O)C(C)C` [HIF-1α776–826], for which the Kd in assay [1] (5 µM protein in cell, 60 µM peptide in syringe, 40 mM Na-phosphate, 100 mM NaCl, 1 mM DTT pH 7.4, average of three independent measurements, read-out: KD of HIF-1α776-826 binding to p300) is 50 ± 8 nM; at p300–Flu-HIF-1α (setting [3]), 57 ± 4 nM.

For the compound `CC[C@H](C)[C@H](NC(C)=O)C(=O)N[C@@H](CC(=O)O)CC(=O)N[C@H](C(=O)N[C@@H](CC(=O)O)CC(=O)N[C@@H](Cc1ccccc1)C(=O)N[C@H](C(=O)N[C@@H](CC(=O)O)CC(=O)N[C@@H](CCC(=O)O)C(=O)N[C@@H](CCC(=O)O)C(=O)N[C@H](C(=O)N[C@@H](CC(C)C)C(=O)N[C@@H](CCSC)C(=O)N[C@@H](CO)C(=O)N[C@@H](CC(C)C)C(=O)N[C@H](C(=O)N[C@H](C(=O)N[C@@H](CCC(=O)O)C(=O)N[C@@H](CCSC)C(=O)NCC(=O)N[C@@H](CC(C)C)C(=O)N[C@@H](CC(=O)O)C(=O)N[C@@H](CCCNC(=N)N)C(=O)N[C@H](C(=O)N[C@@H](CCCCN)C(=O)N[C@@H](CCC(=O)O)C(=O)N[C@@H](CC(C)C)C(=O)N1CCC[C@H]1C(=O)N[C@@H](CCC(=O)O)C(=O)N[C@@H](CC(C)C)C(=O)N[C@@H](Cc1c[nH]c2ccccc12)C(=O)N[C@@H](CC(C)C)C(=O)NCC(=O)N[C@@H](CCC(N)=O)C(=O)N[C@@H](CC(N)=O)C(=O)N[C@@H](CCC(=O)O)C(=O)N[C@@H](Cc1ccccc1)C(=O)N[C@@H](CC(=O)O)C(=O)N[C@@H](Cc1ccccc1)C(=O)N[C@@H](CCSC)C(N)=O)[C@@H](C)CC)[C@@H](C)CC)C(C)C)C(C)C)[C@@H](C)CC)[C@@H](C)O` [compound 1] (Ac-I[β3hD]T[β3hD]FI[β3hD]EEVLMSLVIEMGLDRIKELPELWLGQNEFDFM-NH2), the figures for the Kd (in assay [1] (setting [2]); on p300–Flu-HIF-1α (setting [3])) were 19 nM and 9.6 ± 2.4 nM, respectively.

As for “Ac-IDTDFIDEEVLMSLVIEMGLDRIKELPELWLGQNEFDFM-NH2 [CITED2_218–256]”, the Kd in assay [1] (setting [2]) is 11 nM; at p300–Flu-HIF-1α (as other FA competition values, average and standard deviation of two individual titrations (Fig. 2 and Fig. S11), SD, read-out: Kd,app FA competition against p300–Flu-HIF-1α), 2 ± 0.9 nM.

`CC[C@H](C)[C@H](NC(=O)[C@@H]1CCCN1C(=O)[C@H](C)NC(=O)[C@H](CC(N)=O)NC(=O)[C@@H](NC(=O)[C@H](CCC(=O)O)NC(=O)[C@H](CS)NC(=O)[C@H](CC(=O)O)NC(=O)[C@H](Cc1ccc(O)cc1)NC(=O)[C@H](CO)NC(=O)[C@@H](NC(=O)[C@H](CC(C)C)NC(=O)[C@H](CCC(N)=O)NC(=O)[C@@H]1CCCN1C(=O)[C@H](CC(C)C)NC(=O)CNC(=O)[C@H](CO)NC(=O)[C@H](CCC(=O)O)NC(=O)[C@H](CC(=O)O)NC(=O)[C@H](CCSC)NC(=O)[C@H](CO)NC(=O)CCCCCNC(=O)c1ccc2c(c1)C(=O)OC21c2ccc(O)cc2Oc2cc(O)ccc21)[C@@H](C)O)C(C)C)C(=O)N[C@@H](CCC(N)=O)C(=O)NCC(=O)N[C@@H](CO)C(=O)N[C@@H](CCCNC(=N)N)C(=O)N[C@@H](CC(N)=O)C(=O)N[C@@H](CC(C)C)C(=O)N[C@@H](CC(C)C)C(=O)N[C@@H](CCC(N)=O)C(=O)NCC(=O)N[C@@H](CCC(=O)O)C(=O)N[C@@H](CCC(=O)O)C(=O)N[C@@H](CC(C)C)C(=O)N[C@@H](CC(C)C)C(=O)N[C@@H](CCCNC(=N)N)C(=O)N[C@@H](C)C(=O)N[C@@H](CC(C)C)C(=O)N[C@@H](CC(=O)O)C(=O)N[C@@H](CCC(N)=O)C(=O)N[C@H](C(=O)N[C@@H](CC(N)=O)C(N)=O)C(C)C` [Flu-HIF-1α]: the Kd at p300–Flu-HIF-1α (determined by FA competition with HIF-1α776–826 as competitor (competitor KD 50 ± 8 nM from ITC), 50 nM p300, 25 nM tracer, 35 °C, read-out: KD of the fluorescent tracer for p300) is 64 nM.
